Experimental data reported in patent US20110082130A1 (LIGAND PHARMACEUTICALS, INC., priority 2006, published 2011).

These molecules were tested against T1, chimeric human H3 receptor (Homo sapiens, UniProt Q9Y5N1) (assay: Chimeric human H3 receptor GTP binding assay (agonist-stimulated GTP-gamma35S binding, Example 7)). Conditions: Table I; P2 membranes of Sf9 cells, 1 μM histamine as agonist, Ki from IC50 by Cheng-Prusoff.
T1 construct: made in house; host or cells: Sf9 insect cells (baculovirus); P2 membrane preparation
T1 sequence (Q9Y5N1 with tags, fused parts or gaps): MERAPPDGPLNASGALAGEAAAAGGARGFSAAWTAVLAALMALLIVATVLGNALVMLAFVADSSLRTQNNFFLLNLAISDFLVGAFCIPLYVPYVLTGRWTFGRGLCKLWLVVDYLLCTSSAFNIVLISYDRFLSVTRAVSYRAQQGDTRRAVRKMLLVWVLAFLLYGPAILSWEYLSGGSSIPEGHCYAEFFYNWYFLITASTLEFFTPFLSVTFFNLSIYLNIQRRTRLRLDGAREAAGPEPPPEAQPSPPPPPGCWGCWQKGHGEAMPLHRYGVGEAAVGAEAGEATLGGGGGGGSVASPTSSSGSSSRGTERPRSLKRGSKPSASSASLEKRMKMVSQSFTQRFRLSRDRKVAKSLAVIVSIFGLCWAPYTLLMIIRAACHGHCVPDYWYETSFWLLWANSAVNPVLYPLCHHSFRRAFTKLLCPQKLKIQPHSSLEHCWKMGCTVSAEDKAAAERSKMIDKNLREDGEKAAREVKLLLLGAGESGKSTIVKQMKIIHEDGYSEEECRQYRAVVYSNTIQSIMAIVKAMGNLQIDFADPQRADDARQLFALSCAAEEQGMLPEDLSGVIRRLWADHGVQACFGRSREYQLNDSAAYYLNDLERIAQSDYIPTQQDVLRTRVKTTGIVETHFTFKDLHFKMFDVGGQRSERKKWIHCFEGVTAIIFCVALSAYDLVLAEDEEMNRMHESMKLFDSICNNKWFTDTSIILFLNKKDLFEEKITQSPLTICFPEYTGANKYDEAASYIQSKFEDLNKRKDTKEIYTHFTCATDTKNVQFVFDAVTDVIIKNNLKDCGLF
Format: biochemical
Procedure, shortened: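 Sf9 membranes co-expressing chimeric human H3 receptor and heterotrimeric G-protein, 35 μg/tube, in pH 7.4 Tris buffer with 10 μM GDP. Test compounds (10^−10–10^−6 M) competed against 1 μM histamine, […] GTP-gamma35S, 60 min at room temperature. Filter-bound radioactivity counted; IC50 converted to Ki by Cheng-Prusoff. Agonism/inverse agonism tested without histamine (EC50).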
With `CC(C)N1CCN(C(=O)CN2CCc3ccccc3C2c2ccccc2F)CC1` (stereo not drawn) [Compound 58, 1-(2-fluorophenyl)-2-[2-(4-isopropylpiperazin-1-yl)-2-oxoethyl]-1,2,3,4-tetrahydroisoquinoline] the Ki was < 1000 nM.
With `O=C(CN1CCc2cc(Br)ccc2C1c1ccccc1Cl)N1CCN(C2CCC2)CC1` (stereo not drawn) [Compound 63, 6-bromo-1-(2-chlorophenyl)-2-[2-(4-cyclobutylpiperazin-1-yl)-2-oxoethyl]-1,2,3,4-tetrahydroisoquinoline] the Ki was < 1000 nM.
`COc1cc2c(cc1OC)CN(CC(=O)N1CCN(C3CCCCC3)CC1)CC2` [Compound 50, 2-[2-(4-cyclohexylpiperazin-1-yl)-2-oxoethyl]-6,7-dimethoxy-1,2,3,4-tetrahydroisoquinoline] was tested, and the Ki was < 1000 nM.
With `COc1ccc2c(c1)CCN(CC(=O)N1CCN(C3CCC3)CC1)CC2` [Compound 77, 3-[2-(4-cyclobutylpiperazin-1-yl)-2-oxoethyl]-7-methoxy-2,3,4,5-tetrahydro-1H-3-benzazepine] the Ki was < 1000 nM.

Same assay, conditions: Table II "Ki", symbol *; assay of Example 7
In the case of `O=C(CN1CCc2nc(NCC3CC3)ccc2C1)N1CCN(C2CCC2)CC1` [Compound 650, 6-[2-(4-cyclobutylpiperazin-1-yl)-2-oxoethyl]-N-(cyclopropylmethyl)-5,6,7,8-tetrahydro-1,6-naphthyridin-2-amine], the Ki is reported as < 1000 nM.
For `CCC(COC)Nc1ccc2c(n1)CCN(CC(=O)N1CCN(C3CCC3)CC1)C2` (stereo not drawn) [Compound 666, 6-[2-(4-cyclobutylpiperazin-1-yl)-2-oxoethyl]-N-[1-(methoxymethyl)propyl]-5,6,7,8-tetrahydro-1,6-naphthyridin-2-amine], the Ki was < 1000 nM.
`CN(C)Cc1ccc(-c2ccc3c(c2)CCN(CC(=O)N2CCN(C4CCC4)CC2)C3)cc1` [Compound 642, 1-(4-{2-[2-(4-cyclobutylpiperazin-1-yl)-2-oxoethyl]-1,2,3,4-tetrahydroisoquinolin-6-yl}phenyl)-N,N-dimethylmethanamine] was tested, and the Ki was < 1000 nM.

Same assay, conditions: Table II; "*" = Ki in assay of Example 7 less than 1 micromolar
For `Cc1ccc(-n2cc3c(n2)CCN(CC(=O)N2CCN(C4CCC4)CC2)C3)nc1` [Compound 261, 5-[2-(4-cyclobutylpiperazin-1-yl)-2-oxoethyl]-2-(5-methylpyridin-2-yl)-4,5,6,7-tetrahydro-2H-pyrazolo[4,3-c]pyridine], the Ki was < 1000 nM.
For `CC(=O)c1ccc2c(c1)CCN(CC(=O)N1CCN3C(C)CCCC3C1)C2` (stereo not drawn) [Compound 142, 1-{2-[2-(6-methyloctahydro-2H-pyrido[1,2-a]pyrazin-2-yl)-2-oxoethyl]-1,2,3,4-tetrahydroisoquinolin-6-yl}ethanone], the Ki was < 1000 nM.
For `Cn1cccc(-c2ccc3c(c2)CCN(CC(=O)N2CCN(C4CCC4)CC2)C3)c1=O` [Compound 212, 3-{2-[2-(4-cyclobutylpiperazin-1-yl)-2-oxoethyl]-1,2,3,4-tetrahydroisoquinolin-6-yl}-1-methylpyridin-2(1H)-one], the Ki was < 1000 nM.
In the case of `O=C(CN1CCc2sc(-c3cncnc3)cc2C1)N1CCN(C2CCC2)CC1` [Compound 269, 5-[2-(4-cyclobutylpiperazin-1-yl)-2-oxoethyl]-2-pyrimidin-5-yl-4,5,6,7-tetrahydrothieno[3,2-c]pyridine], the Ki is reported as < 1000 nM.
For `Cn1c(-c2ccc3c(c2)CCN(CC(=O)N2CCN(C4CCC4)CC2)C3)cccc1=O` [Compound 278, 6-{2-[2-(4-cyclobutylpiperazin-1-yl)-2-oxoethyl]-1,2,3,4-tetrahydroisoquinolin-6-yl}-1-methylpyridin-2(1H)-one], the Ki was < 1000 nM.
In the case of `CNC(=O)c1cnc2c(c1)CCN(CC(=O)N1CCN(C3CCC3)C(C)C1)C2` (stereo not drawn) [Compound 121, 7-[2-(4-cyclobutyl-3-methylpiperazin-1-yl)-2-oxoethyl]-N-methyl-5,6,7,8-tetrahydro-1,7-naphthyridine-3-carboxamide], the Ki is reported as < 1000 nM.
In the case of `O=C(CN1CCc2nc(-c3ccncc3)ncc2C1)N1CCN(C2CCC2)CC1` [Compound 137, 6-[2-(4-cyclobutylpiperazin-1-yl)-2-oxoethyl]-2-pyridin-4-yl-5,6,7,8-tetrahydropyrido[4,3-d]pyrimidine], the Ki is reported as < 1000 nM.
`O=C(CN1CCc2nc(N3CCCCC3)ncc2C1)N1CCN(C2CCC2)CC1` [Compound 155, 6-[2-(4-cyclobutylpiperazin-1-yl)-2-oxoethyl]-2-piperidin-1-yl-5,6,7,8-tetrahydropyrido[4,3-d]pyrimidine] was tested, and the Ki was < 1000 nM.
In the case of `Cn1cc(-c2ccc3c(c2)CCN(CC(=O)N2CCN(C4CCC4)CC2)C3)ccc1=O` [Compound 192, 5-{2-[2-(4-cyclobutylpiperazin-1-yl)-2-oxoethyl]-1,2,3,4-tetrahydroisoquinolin-6-yl}-1-methylpyridin-2(1H)-one], the Ki is reported as < 1000 nM.
`O=C(CN1CCc2c(cnn2-c2ccc(Cl)nn2)C1)N1CCN(C2CCC2)CC1` [Compound 214, 1-(6-chloropyridazin-3-yl)-5-[2-(4-cyclobutylpiperazin-1-yl)-2-oxoethyl]-4,5,6,7-tetrahydro-1H-pyrazolo[4,3-c]pyridine] was tested, and the Ki was < 1000 nM.
With `O=C(CN1CCc2c(cnn2-c2ccc(Br)cc2)C1)N1CCN(C2CCC2)CC1` [Compound 90, 1-(4-bromophenyl)-5-[2-(4-cyclobutylpiperazin-1-yl)-2-oxoethyl]-4,5,6,7-tetrahydro-1H-pyrazolo[4,3-c]pyridine] the Ki was < 1000 nM.
With `CCC1CCC[C@H]2CN(C(=O)CN3CCc4cc(C(C)=O)ccc4C3)CCN12` (stereo in doubt) [Compound 163, 1-{2-[2-(6-ethyloctahydro-2H-pyrido[1,2-a]pyrazin-2-yl)-2-oxoethyl]-1,2,3,4-tetrahydroisoquinolin-6-yl}ethanone] the Ki was < 1000 nM.
For `O=C(CN1CCc2nn(-c3cccnn3)cc2C1)N1CCN(C2CCC2)CC1` [Compound 255, 5-[2-(4-cyclobutylpiperazin-1-yl)-2-oxoethyl]-2-pyridazin-3-yl-4,5,6,7-tetrahydro-2H-pyrazolo[4,3-c]pyridine], the Ki was < 1000 nM.
`O=C(CN1CCc2cn(-c3cncnc3)nc2C1)N1CCN(C2CCC2)CC1` [Compound 124, 6-[2-(4-cyclobutylpiperazin-1-yl)-2-oxoethyl]-2-pyrimidin-5-yl-4,5,6,7-tetrahydro-2H-pyrazolo[3,4-c]pyridine] was tested, and the Ki was < 1000 nM.
For `O=C(NC1CCC1)c1ccc2c(n1)CCN(CC(=O)N1CCN(C3CCC3)CC1)C2` [Compound 125, N-cyclobutyl-6-[2-(4-cyclobutylpiperazin-1-yl)-2-oxoethyl]-5,6,7,8-tetrahydro-1,6-naphthyridine-2-carboxamide], the Ki was < 1000 nM.
With `O=C(CN1CCc2sc(Br)nc2C1)N1CCN(C2CCC2)CC1` [Compound 108, 2-bromo-5-[2-(4-cyclobutylpiperazin-1-yl)-2-oxoethyl]-4,5,6,7-tetrahydro[1,3] thiazolo [4,5-c]pyridine] the Ki was < 1000 nM.

Same assay, conditions: Table II; assay of Example 7
With `N#Cc1ccc(-c2ncc3c(n2)CCN(CC(=O)N2CCN(C4CCC4)CC2)C3)cc1` [Compound 683, 4-{6-[2-(4-cyclobutylpiperazin-1-yl)-2-oxoethyl]-5,6,7,8-tetrahydropyrido[4,3-d]pyrimidin-2-yl]benzonitrile] the Ki was < 1000 nM.

Same assay, conditions: assay of Example 7; "*" in Ki of Table II
With `O=C(CN1CCc2nc(-c3c(F)cccc3F)sc2C1)N1CCN(C2CCC2)CC1` [Compound 353, 5-[2-(4-cyclobutylpiperazin-1-yl)-2-oxoethyl]-2-(2,6-difluorophenyl)-4,5,6,7-tetrahydro[1,3]thiazolo [5,4-c]pyridine] the Ki was < 1000 nM.
With `COc1cccc(-c2ccc3c(c2)CCN(CC(=O)N2CCN(C4CCCC4)CC2)C3)c1` [Compound 476, 2-[2-(4-cyclopentylpiperazin-1-yl)-2-oxoethyl]-6-(3-methoxyphenyl)-1,2,3,4-tetrahydroisoquinoline] the Ki was < 1000 nM.
`COc1ccc(C)cc1-c1nc2c(s1)CN(CC(=O)N1CCN(C3CCC3)CC1)CC2` [Compound 344, 5-[2-(4-cyclobutylpiperazin-1-yl)-2-oxoethyl]-2-(2-methoxy-5-methylphenyl)-4,5,6,7-tetrahydro[1,3]thiazolo [5,4-c]pyridine] was tested, and the Ki was < 1000 nM.
In the case of `COc1ccc(Cl)cc1-c1nc2c(s1)CN(CC(=O)N1CCN(C3CCC3)CC1)CC2` [Compound 338, 2-(5-chloro-2-methoxyphenyl)-5-[2-(4-cyclobutylpiperazin-1-yl)-2-oxoethyl]-4,5,6,7-tetrahydro[1,3]thiazolo [5,4-c]pyridine], the Ki is reported as < 1000 nM.
For `O=C(CN1CCc2nc(-c3ccc(F)cc3)sc2C1)N1CCN(C2CCC2)CC1` [Compound 297, 5-[2-(4-cyclobutylpiperazin-1-yl)-2-oxoethyl]-2-(4-fluorophenyl)-4,5,6,7-tetrahydro[1,3]thiazolo [5,4-c]pyridine], the Ki was < 1000 nM.
`Cc1cccc(-c2nc3c(s2)CN(CC(=O)N2CCN(C4CCC4)CC2)CC3)c1` [Compound 304, 5-[2-(4-cyclobutylpiperazin-1-yl)-2-oxoethyl]-2-(3-methylphenyl)-4,5,6,7-tetrahydro[1,3]thiazolo [5,4-c]pyridine] was tested, and the Ki was < 1000 nM.
In the case of `CCOC(=O)c1ccc(-c2nc3c(s2)CN(CC(=O)N2CCN(C4CCC4)CC2)CC3)cc1` [Compound 375, ethyl 4-{5-[2-(4-cyclobutylpiperazin-1-yl)-2-oxoethyl]-4,5,6,7-tetrahydro[1,3]thiazolo [5,4-c]pyridin-2-yl}benzoate], the Ki is reported as < 1000 nM.
In the case of `N#Cc1ccc(-c2nc3c(s2)CN(CC(=O)N2CCN(C4CCC4)CC2)CC3)cc1` [Compound 368, 4-{5-[2-(4-cyclobutylpiperazin-1-yl)-2-oxoethyl]-4,5,6,7-tetrahydro[1,3]thiazolo [5,4-c]pyridin-2-yl}benzonitrile], the Ki is reported as < 1000 nM.
With `O=C(CN1CCc2nc(-c3ccc(Cl)c(F)c3)sc2C1)N1CCN(C2CCC2)CC1` [Compound 352, 2-(4-chloro-3-fluorophenyl)-5-[2-(4-cyclobutylpiperazin-1-yl)-2-oxoethyl]-4,5,6,7-tetrahydro[1,3]thiazolo [5,4-c]pyridine] the Ki was < 1000 nM.
